According to US20170037014A1, “FUNGICIDAL PYRAZOLES” (E. I. DU PONT DE NEMOURS AND COMPANY, priority 2014, published 2017):
Marks after values point to notes of the source that are not given here.

Tests used:
Septoria tritici = test: Test B: wheat leaf blotch, preventive spray on wheat seedlings, visual disease rating; assay type: in vivo; conditions: 100 = 100% disease control, 0 = no control
Source text: General protocol for preparing test suspensions for Tests A-D: the test compounds were first dissolved in acetone in an amount equal to 3% of the final volume and then suspended at the desired concentration (in ppm) in acetone and purified water (50/50 mix by volume) containing 250 ppm of the surfactant Trem® 014 (polyhydric alcohol esters). The resulting test suspensions were then used in Tests A-D. The test suspension was sprayed to the point of run-off on wheat seedlings. The following day the seedlings were inoculated with a spore suspension of Septoria tritici (the causal agent of wheat leaf blotch) and incubated in a saturated atmosphere at 24° C. for 48 h, and then moved to a growth chamber at 20° C. for 19 days, after which time visual disease ratings were made. In the Table, a rating of 100 indicates 100% disease control and a rating of 0 indicates no disease control (relative to the controls). A dash (−) indicates no test results. All results are for 250 ppm except where followed by an “*” which indicates 50 ppm, and where followed by an “**” which indicates 10 ppm

Botrytis cinerea = test: Test C: tomato Botrytis, preventive spray on tomato seedlings, visual disease rating; assay type: in vivo; conditions: 100 = 100% disease control, 0 = no control
Source text: General protocol for preparing test suspensions for Tests A-D: the test compounds were first dissolved in acetone in an amount equal to 3% of the final volume and then suspended at the desired concentration (in ppm) in acetone and purified water (50/50 mix by volume) containing 250 ppm of the surfactant Trem® 014 (polyhydric alcohol esters). The resulting test suspensions were then used in Tests A-D. The test suspension was sprayed to the point of run-off on tomato seedlings. The following day the seedlings were inoculated with a spore suspension of Botrytis cinerea (the causal agent of tomato Botrytis) and incubated in a saturated atmosphere at 20° C. for 48 h, and then moved to a growth chamber at 24° C. for 3 days, after which time visual disease ratings were made. In the Table, a rating of 100 indicates 100% disease control and a rating of 0 indicates no disease control (relative to the controls). A dash (−) indicates no test results. All results are for 250 ppm except where followed by an “*” which indicates 50 ppm, and where followed by an “**” which indicates 10 ppm

[1] = tested on: Puccinia recondita f sp. tritici; test: Test A: wheat leaf rust, preventive spray on wheat seedlings, visual disease rating; assay type: in vivo; conditions: 100 = 100% disease control, 0 = no control
Source text: General protocol for preparing test suspensions for Tests A-D: the test compounds were first dissolved in acetone in an amount equal to 3% of the final volume and then suspended at the desired concentration (in ppm) in acetone and purified water (50/50 mix by volume) containing 250 ppm of the surfactant Trem® 014 (polyhydric alcohol esters). The resulting test suspensions were then used in Tests A-D. The test suspension was sprayed to the point of run-off on wheat seedlings. The following day the seedlings were inoculated with a spore suspension of Puccinia recondita f sp. tritici (the causal agent of wheat leaf rust) and incubated in a saturated atmosphere at 20° C. for 24 h, and then moved to a growth chamber at 20° C. for 7 days, after which time visual disease ratings were made. In the Table, a rating of 100 indicates 100% disease control and a rating of 0 indicates no disease control (relative to the controls). A dash (−) indicates no test results. All results are for 250 ppm except where followed by an “*” which indicates 50 ppm, and where followed by an “**” which indicates 10 ppm

[2] = tested on: Blumeria graminis f sp. tritici; test: Test D: wheat powdery mildew, preventive spray on wheat seedlings, visual disease rating; assay type: in vivo; conditions: 100 = 100% disease control, 0 = no control
Source text: General protocol for preparing test suspensions for Tests A-D: the test compounds were first dissolved in acetone in an amount equal to 3% of the final volume and then suspended at the desired concentration (in ppm) in acetone and purified water (50/50 mix by volume) containing 250 ppm of the surfactant Trem® 014 (polyhydric alcohol esters). The resulting test suspensions were then used in Tests A-D. The test suspension was sprayed to the point of run-off on wheat seedlings. The following day the seedlings were inoculated with a spore dust of Blumeria graminis f sp. tritici, (also known as Erysiphe graminis f. sp. tritici, the causal agent of wheat powdery mildew) and incubated in a growth chamber at 20° C. for 8 days, after which time visual disease ratings were made. In the Table, a rating of 100 indicates 100% disease control and a rating of 0 indicates no disease control (relative to the controls). A dash (−) indicates no test results. All results are for 250 ppm except where followed by an “*” which indicates 50 ppm, and where followed by an “**” which indicates 10 ppm

[3] = Zymoseptoria tritici, 50 ppm (*)

melting point [°C]	Structure (SMILES)	Test B disease control rating (Septoria tritici; 50 ppm (*))	Test A disease control rating ([1]; 50 ppm (*))	Test D disease control rating ([2]; 50 ppm (*))	Test C disease control rating (Botrytis cinerea; 50 ppm (*))	further results
–	Cc1nn(C)c(C2=CCCCC2)c1Oc1ccc(F)cc1Cl [Compound 13, 4-(2-chloro-4-fluorophenoxy)-5-(1-cyclohexen-1-yl)-1,3-dimethyl-1H-pyrazole]	–	–	–	–	pest or weed control at 250 ppm (Septoria tritici; Zymoseptoria tritici, 250 ppm): 0%; pest or weed control at 250 ppm (Botrytis cinerea; Botrytis cinerea, 250 ppm): 0%; pest or weed control at 250 ppm ([1]; 250 ppm): 9%; pest or weed control at 250 ppm ([2]; Blumeria graminis, 250 ppm): 67%
118 to 121	CCC(C)c1c(C(O)c2ccc(F)cc2F)c(C)nn1C (stereo not drawn) [Compound 10, α-(2,4-difluorophenyl)-1,3-dimethyl-5-(1-methylpropyl)-1H-pyrazole-4-methanol]	–	–	–	–	pest or weed control at 250 ppm (Septoria tritici; Zymoseptoria tritici, 250 ppm): 99%; pest or weed control at 250 ppm (Botrytis cinerea; Botrytis cinerea, 250 ppm): 99%; pest or weed control at 250 ppm ([1]; 250 ppm): 100%; pest or weed control at 250 ppm ([2]; Blumeria graminis, 250 ppm): 100%
129 to 133	Cc1nn(C)c(CC(C)C)c1C(O)c1ccc(F)cc1F (stereo not drawn) [Compound 14, α-(2,4-difluorophenyl)-1,3-dimethyl-5-(2-methylpropyl)-1H-pyrazole-4-methanol]	–	–	–	–	pest or weed control at 50 ppm (Septoria tritici; [3]): 99%; pest or weed control at 50 ppm (Botrytis cinerea; Botrytis cinerea, 50 ppm (*)): 16%; pest or weed control at 50 ppm ([1]; 50 ppm (*)): 74%; pest or weed control at 50 ppm ([2]; Blumeria graminis, 50 ppm (*)): 98%
–	CCC(C)c1c(Nc2ccc(F)cc2Cl)c(C)nn1C (centres unmarked) [Compound 18]	0* %	0* %	0* %	–	–
175 to 178	CCC(C)c1c(C(O)c2c(Cl)cccc2Cl)c(C)nn1C (stereo not drawn) [Compound 24, α-(2,6-dichlorophenyl)-1,3-dimethyl-5-(1-methylpropyl)-1H-pyrazole-4-methanol]	–	–	–	–	pest or weed control at 50 ppm (Septoria tritici; [3]): 69%; pest or weed control at 50 ppm (Botrytis cinerea; Botrytis cinerea, 50 ppm (*)): 40%; pest or weed control at 50 ppm ([1]; 50 ppm (*)): 99%; pest or weed control at 50 ppm ([2]; Blumeria graminis, 50 ppm (*)): 84%
114 to 117	CCC(C)c1c(C(O)c2c(F)cc(F)cc2F)c(C)nn1C (stereo not drawn) [Compound 23, 1,3-dimethyl-5-(1-methylpropyl)-α-(2,4,6-trifluorophenyl)-1H-pyrazole-4-methanol]	–	–	–	–	pest or weed control at 50 ppm (Septoria tritici; [3]): 94%; pest or weed control at 50 ppm (Botrytis cinerea; Botrytis cinerea, 50 ppm (*)): 31%; pest or weed control at 50 ppm ([1]; 50 ppm (*)): 97%; pest or weed control at 50 ppm ([2]; Blumeria graminis, 50 ppm (*)): 96%
–	CC=C(C)c1c(Oc2ccc(F)cc2Cl)c(C)nn1C [Compound 4]	–	–	–	–	Test B disease control rating (Septoria tritici; 250 ppm): 0%; Test C disease control rating (Botrytis cinerea; 250 ppm): 39%; Test A disease control rating ([1]; 250 ppm): 0%; Test D disease control rating ([2]; 250 ppm): 56%
–	Cc1nn(C)c(C(C)C)c1C(O)c1ccc(F)cc1F (centres unmarked) [Compound 2]	99* %	57* %	99* %	0* %	–
–	CCC(C)c1c(Oc2ccc(F)cc2Cl)c(C)nn1C (centres unmarked) [Compound 7]	–	–	–	–	Test B disease control rating (Septoria tritici; 250 ppm): 0%; Test C disease control rating (Botrytis cinerea; 250 ppm): 0%; Test A disease control rating ([1]; 250 ppm): 0%; Test D disease control rating ([2]; 250 ppm): 0%
–	CCC(C)c1c(Nc2c(F)cc(F)cc2F)c(C)nn1C (centres unmarked) [Compound 15]	1* %	0* %	0* %	–	–
159 to 162	Cc1nn(C)c(CC(C)C)c1C(O)c1ccc(F)cc1Cl (stereo not drawn) [Compound 3, α-(2-chloro-4-fluorophenyl)-1,3-dimethyl-5-(2-methylpropyl)-1H-pyrazole-4-methanol]	–	–	–	–	pest or weed control at 10 ppm (Septoria tritici; Zymoseptoria tritici, 10 ppm (**)): 100%; pest or weed control at 10 ppm (Botrytis cinerea; Botrytis cinerea, 10 ppm (**)): 0%; pest or weed control at 10 ppm ([1]; 10 ppm (**)): 89%; pest or weed control at 10 ppm ([2]; Blumeria graminis, 10 ppm (**)): 71%
–	Cc1nn(C)c(C2CCCC2)c1C(O)c1ccc(F)cc1Cl (centres unmarked) [Compound 19]	100* %	89* %	89* %	0* %	–
–	CCC(C)c1c(Nc2c(F)cc(C#N)cc2F)c(C)nn1C (centres unmarked) [Compound 17]	35* %	0* %	69* %	–	–
–	CCC(C)c1c(C(O)c2c(F)cccc2F)c(C)nn1C (centres unmarked) [Compound 25]	63* %	74* %	86* %	17* %	–
–	C=C(C)Cc1c(C(O)c2ccc(F)cc2Cl)c(C)nn1C (centres unmarked) [Compound 5]	99* %	68* %	76* %	0* %	–
75 to 79	Cc1nn(C)c(C2CCCCC2)c1Oc1ccc(F)cc1Cl [Compound 12, 4-(2-chloro-4-fluorophenoxy)-5-cyclohexyl-1,3-dimethyl-1H-pyrazole]	–	–	–	–	pest or weed control at 250 ppm (Septoria tritici; Zymoseptoria tritici, 250 ppm): 19%; pest or weed control at 250 ppm (Botrytis cinerea; Botrytis cinerea, 250 ppm): 9%; pest or weed control at 250 ppm ([1]; 250 ppm): 79%; pest or weed control at 250 ppm ([2]; Blumeria graminis, 250 ppm): 90%
–	Cn1nc(Br)c(C(O)c2ccc(F)cc2Cl)c1C1=CCCCC1 (centres unmarked) [Compound 28]	87* %	80* %	64* %	0* %	–
152 to 154	Cc1nn(C)c(C(C)C)c1C(O)c1ccc(F)cc1Cl (stereo not drawn) [Compound 1, α-(2-chloro-4-fluorophenyl)-1,3-dimethyl-5-(1-methylethyl)-1H-pyrazole-4-methanol]	–	–	–	–	pest or weed control at 50 ppm (Septoria tritici; [3]): 100%; pest or weed control at 50 ppm (Botrytis cinerea; Botrytis cinerea, 50 ppm (*)): 33%; pest or weed control at 50 ppm ([1]; 50 ppm (*)): 98%; pest or weed control at 50 ppm ([2]; Blumeria graminis, 50 ppm (*)): 97%
161 to 164	Cc1nn(C)c(C2CCCCC2)c1C(O)c1ccc(F)cc1F (stereo not drawn) [Compound 11, 5-cyclohexyl-α-(2,4-difluorophenyl)-1,3-dimethyl-1H-pyrazole-4-methanol]	–	–	–	–	pest or weed control at 250 ppm (Septoria tritici; Zymoseptoria tritici, 250 ppm): 100%; pest or weed control at 250 ppm (Botrytis cinerea; Botrytis cinerea, 250 ppm): 99%; pest or weed control at 250 ppm ([1]; 250 ppm): 99%; pest or weed control at 250 ppm ([2]; Blumeria graminis, 250 ppm): 97%
–	CC=C(C)c1c(C(O)c2ccc(F)cc2Cl)c(Br)nn1C (centres unmarked) [Compound 27]	100* %	99* %	–	58* %	Test D disease control rating ([2]; 250 ppm): 86%
–	Cc1nn(C)c(C2CCCC2)c1C(O)c1ccc(F)cc1F (centres unmarked) [Compound 26]	97* %	74* %	90* %	26* %	–
–	CCC(C)c1c(Nc2ccc(F)c(F)c2)c(C)nn1C (centres unmarked) [Compound 20]	0* %	0* %	26* %	–	–
–	CCC(C)c1c(Nc2c(F)cc([N+](=O)[O-])cc2F)c(C)nn1C (centres unmarked) [Compound 16]	22* %	0* %	0* %	–	–
